According to patent US20090113563A1, “Probe for detecting nuclear receptor agonist or antagonist and method for screening agonist or antagonist to nuclear receptor with the use of the same” (priority 2004, published 2009):
No end group written: not given here.

Legend:
[1] = biological target: T1, human estrogen receptor αLBD (Homo sapiens, UniProt P03372); experiment: FRET probe (CFP-SRC-1 LXXLL-linker-ER αLBD-YFP) for estrogen receptor agonist/antagonist in living CHO-K1 cells; assay type: cell-based
T1 construct: expressed in transfected cells; host or cells: CHO-K1 (Chinese hamster ovary), pcDNA3.1(+)
T1 sequence (P03372 with tags, fused parts or gaps L306P/I326L/L327I/T334S/V368G/T371N/T483N/Q502R/S527N): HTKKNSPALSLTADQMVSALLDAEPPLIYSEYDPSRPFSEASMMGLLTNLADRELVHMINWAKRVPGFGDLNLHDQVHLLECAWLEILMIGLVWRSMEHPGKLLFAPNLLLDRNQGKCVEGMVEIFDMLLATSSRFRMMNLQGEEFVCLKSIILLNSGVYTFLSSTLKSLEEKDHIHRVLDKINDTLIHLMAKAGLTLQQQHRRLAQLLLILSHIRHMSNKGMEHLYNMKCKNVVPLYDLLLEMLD
Method: (§1) Each cell was cultured in Ham's F-12 medium supplemented with 10% fetal calf serum (FCS)b and Dulbecco's modified eagle medium supplemented with 10% FCS, 1.0 mM sodium pyruvate and 0.1 mM nonessential amino acids respectively at 37° C. in a humidified atmosphere 5% CO2. Cells were transfected with an expression vector pcDNA3.1(+) containing a probe in the presence of lipofectAMINE 2000 reagent in glass bottom dishes.
(§2) The cells were Chinese hamster ovary (CHO-K1) cells for a probe for detecting an agonist or an antagonist to an estrogen receptor or a peroxisome growth factor-activating receptor, and pig kidney (PK-15) cells for a probe for detecting an agonist or an antagonist to an androgen receptor.
(§3) Before imageing, the culture medium was replaced with Hanks' balanced salt solution.
(§4) The exposure time at 440±10 nm excitation was 100 ms.
The ED50 values were converted to relative recruitment ability (RRA; Non-Patent Document 34) to compare the relative abilities of the tested compounds to promote the recruitment of the binding-responsive site to the ligand-recognition site. The RRA were calculated using the following equation.

PPAR γ-LBD = biological target: T2, PPAR γ-LBD (Homo sapiens, UniProt P37231); experiment: FRET probe for peroxisome proliferator-activated receptor agonist/antagonist in living CHO-K1 cells; assay type: cell-based; settings: 10 μM
T2 construct: expressed in transfected cells; host or cells: CHO-K1, pcDNA3.1(+)
T2 sequence (P37231 235-505): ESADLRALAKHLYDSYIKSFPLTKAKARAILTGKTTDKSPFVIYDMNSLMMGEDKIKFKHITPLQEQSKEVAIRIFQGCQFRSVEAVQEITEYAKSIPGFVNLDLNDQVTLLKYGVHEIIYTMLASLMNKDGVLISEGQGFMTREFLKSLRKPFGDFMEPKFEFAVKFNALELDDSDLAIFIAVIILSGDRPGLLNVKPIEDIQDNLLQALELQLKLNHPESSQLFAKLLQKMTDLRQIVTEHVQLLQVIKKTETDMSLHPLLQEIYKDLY
Method: According to nearly the same procedure as in the case of the above (A), a plasmid was constructed.
as §1, §2, §3, §4

[2] = biological target: T3, human androgen receptor LBD (Homo sapiens, UniProt P10275); experiment: FRET probe for androgen receptor agonist/antagonist in living PK-15 cells; assay type: cell-based
T3 construct: expressed in transfected cells; host or cells: PK-15 (pig kidney), pcDNA3.1(+)
T3 sequence (P10275 674-912): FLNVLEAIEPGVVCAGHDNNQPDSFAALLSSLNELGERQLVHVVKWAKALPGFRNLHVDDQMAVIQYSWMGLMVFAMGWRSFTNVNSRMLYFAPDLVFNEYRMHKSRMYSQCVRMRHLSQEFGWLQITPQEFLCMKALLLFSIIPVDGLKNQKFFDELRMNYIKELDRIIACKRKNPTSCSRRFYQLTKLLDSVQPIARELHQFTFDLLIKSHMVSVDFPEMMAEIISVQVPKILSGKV
Method: According to nearly the same procedure as in the cases of the above (A) and (B), a plasmid was constructed.
as §1, §2, §3, §4

[3] = biological target: T4, peroxisome growth factor-activating receptor γ ligand-binding domain (235-505aa) (Homo sapiens (Human), UniProt P37231 235-505); experiment: intramolecular CFP/YFP FRET of the probe in CHO-K1 cells, 10 µM 15d-PGJ2
T4 construct: also called PPAR γ-LBD
T4 sequence: T2 sequence (P37231 235-505)
Method: CHO-K1 cells expressing the probe (FIG. 2B) were stimulated by 10 μM 15d-PGJ₂ and the event was observed by following time course fo the changes in FRET.

[4] = biological target: T5, human estrogen receptor α ligand-binding domain (305-550aa) (human, UniProt P03372 305-550); experiment: cell-based or functional assay
T5 sequence (looked up): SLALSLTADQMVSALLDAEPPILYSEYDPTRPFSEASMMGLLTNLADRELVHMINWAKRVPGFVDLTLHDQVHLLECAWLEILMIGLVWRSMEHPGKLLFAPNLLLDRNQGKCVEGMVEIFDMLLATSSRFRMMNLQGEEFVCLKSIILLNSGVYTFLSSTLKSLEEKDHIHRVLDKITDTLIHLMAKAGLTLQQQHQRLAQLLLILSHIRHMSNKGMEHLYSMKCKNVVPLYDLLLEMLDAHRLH

[5] = biological target: T5, human estrogen receptor α …; experiment: intramolecular CFP/YFP FRET in living cells, 100 nM E2
[6] = biological target: T6, human androgen receptor ligand-binding domain (672-910aa) (human, UniProt O97775 665-903 (Pan troglodytes entry)); experiment: intramolecular CFP/YFP FRET in living cells, 100 nM DHT
T6 construct: also called AR-LBD; ligand-recognition site
T6 sequence: T3 sequence (P10275 674-912)

## 4-hydroxytamoxifen [OHT]
[1]
  change in FRET response: no increase in the FRET

## CCCCC/C=C/C=C1/C(=O)C=C[C@@H]1C/C=C\CCCC(=O)O [15d-PGJ2, 15-deoxy-Δ^12,14-prostaglandin J2]
PPAR γ-LBD; FIG. 4B-a
  change in CFP/YFP emission ratio (480/535 nm): decrease in CFP/YFP emission ratio (480/535 nm) (increase in FRET)
  time for emission ratio decrease to reach plateau: ≤ 1000 s

## CC(C)(c1ccc(OCC2CO2)cc1)c1ccc(OCC2CO2)cc1 (stereo not drawn) [BADGE, bisphenol A diglycidyl ether]
PPAR γ-LBD; FIG. 7
  change in emission ratio (FRET response): no significant change in the emission ratio

## C[C@]12CCC(=O)C=C1CC[C@@H]1[C@@H]2[C@@H](O)C[C@@]2(C)[C@H]1CC[C@]2(O)C(=O)CO [cortisol]
[2]; PK-15 cells, 1.0×10^−4 to 1.0×10^−11 M, FIG. 5B
  FRET response over tested concentration range: did not show the response at any tested concentration

## CC12CC1(C)C(=O)N(c1cc(Cl)cc(Cl)c1)C2=O (stereo not drawn) [procymidone]
[2]; 100 nM alone, PK-15, FIG. 8
  change in FRET response, antagonist alone: no significant increase in the FRET
[2]; DHT 1.0, 10, 100 nM + 10 μM antagonist, PK-15, FIG. 8
  FRET response with DHT plus antagonist: the FRET level increased in a dose dependent manner of DHT

## nonylphenol [NP]
[1]; RRA=(conc. E2 [50% response]/conc. EDC [50% response])×100, E2 set at 100
  relative recruitment ability (RRA): 3.0
[1]; read-out: EC50 (concentration inducing 50% response of LXXLL motif recruitment to ER αLBD), CHO-K1 cells expressing the probe, from response curves of FIG. 5A, tested 1.0×10^−4 to 1.0×10^−11 M
  EC50: 260 nM

B1: steroid receptor coactivator 1 NR box II (687-697aa) coactivator peptide (peptide)
peptide: HKILHRLLQEG
modifications: also: segment of CFP–NR box–GGNGG-type linker–LBD–YFP fusion probe
notes: Not tested as a free peptide; also called SRC-1 NR box II
[3]
  binding result: binds
[4]
  EC50 of the small-molecule ligand DES for the FRET response of the probe (CHO-K1 cells): 13 nM
  EC50 of the small-molecule ligand E2 for the FRET response of the probe (CHO-K1 cells): 8 nM
  EC50 of the small-molecule ligand NP for the FRET response of the probe (CHO-K1 cells): 260 nM

B2: mutant binding-responsive site of the mutant probe (SEQ ID No: 7): all leucine residues of the LXXLL motif replaced with alanine (peptide)
peptide: HKIAHRAAQEG
notes: also called mutant LXXLL motif
[5]
  binding result: no binding
[6]
  binding result: no binding
